According to patent publication US11344532B2, “Topically administrable formulation for the control and prevention of animal parasites” (BAYER ANIMAL HEALTH GMBH, priority 2017, dated 2022):
Read-outs that look alike come from different tables or passages of the source.

Experiments:
[1] = solubilities of active compounds in solvents; assay type: physicochemical
Method: The flash point of 130° C. is sufficiently high for safe production. Studies with selected fluorinated antiparasitics in triethyl phosphate formulations show good and long-lasting activity against fleas and various ticks on dogs and cats.

[2] = toxicity of triethyl phosphate
[3] = skin compatibility of triethyl phosphate; conditions: with rats, dogs and cats
[4] = solvent 83.3% propylene carbonate 16.7% benzyl alcohol

## N#Cc1nn(-c2c(Cl)cc(C(F)(F)F)cc2Cl)c(N)c1[S+]([O-])C(F)(F)F (centres unmarked) [fipronil]
[1]
  solubility in 83.3% propylene carbonate 16.7% benzyl alcohol: 5% (w/w)
  solubility in propylene carbonate: 11% (w/w)
  solubility in triethyl phosphate: 36% (w/w)

## CCOP(=O)(OCC)OCC [Triethyl phosphate, triethyl phosphate]
[2]
  toxicity: low toxicity
[3]
  skin compatibility: excellent skin compatibility

## CON=CNC(=O)c1ccc(C2=NOC(c3cc(Cl)cc(Cl)c3)(C(F)(F)F)C2)cc1C (centres unmarked) [fluxametamide]
[1]; [4]
  solubility in 83.3% propylene carbonate 16.7% benzyl alcohol: 6% (w/w)
[1]; solvent propylene carbonate
  solubility in propylene carbonate: 3% (w/w)
[1]; solvent triethyl phosphate
  solubility in triethyl phosphate: 20% (w/w)

## O=C(NC1CC1)c1cc(-c2cnn(-c3c(Cl)cc(C(F)(C(F)(F)F)C(F)(F)F)cc3OC(F)(F)F)c2)cnc1Cl [Compound 1, 2-chloro-5-[1-[2-chloro-4-[1,2,2,2-tetrafluoro-1-(trifluoromethyl)ethyl]-6-(trifluoromethoxy)phenyl]-1H-pyrazol-4-yl]-N-cyclopropyl-3-pyridinecarboxamide]
[1]; [4]
  solubility in 83.3% propylene carbonate 16.7% benzyl alcohol: 17% (w/w)
[1]; solvent propylene carbonate
  solubility in propylene carbonate: 5% (w/w)
[1]; solvent triethyl phosphate
  solubility in triethyl phosphate: 44% (w/w)

## N#Cc1nn(-c2c(Cl)cc(C(F)(F)F)cc2Cl)c(NCc2ccccn2)c1SC(F)F [pyriprole]
[1]; [4]
  solubility in 83.3% propylene carbonate 16.7% benzyl alcohol: 28% (w/w)
[1]; solvent propylene carbonate
  solubility in propylene carbonate: 21% (w/w)
[1]; solvent triethyl phosphate
  solubility in triethyl phosphate: 49% (w/w)

## Cn1nc(C(F)(F)C(F)(F)F)c(C(F)(F)F)c1-n1cc(-c2ccc(Cl)c(C(=O)NC3(C#N)CC3)c2)cn1 [tigolaner]
[1]; [4]
  solubility in 83.3% propylene carbonate 16.7% benzyl alcohol: 20% (w/w)
[1]; solvent propylene carbonate
  solubility in propylene carbonate: 26% (w/w)
[1]; solvent triethyl phosphate
  solubility in triethyl phosphate: 52% (w/w)

## Cc1cc(C2=NOC(c3cc(Cl)cc(Cl)c3)(C(F)(F)F)C2)ccc1C(=O)NCC(=O)NCC(F)(F)F (centres unmarked) [fluralaner]
[1]; [4]
  solubility in 83.3% propylene carbonate 16.7% benzyl alcohol: 13% (w/w)
[1]; solvent propylene carbonate
  solubility in propylene carbonate: 7% (w/w)
[1]; solvent triethyl phosphate
  solubility in triethyl phosphate: 41% (w/w)

## O=C(NC1CC1)c1cc(-c2cnn(-c3c(Cl)cc(C(F)(C(F)(F)F)C(F)(F)F)cc3C(F)(F)F)c2)cnc1Cl [Compound 2, 2-chloro-5-[1-[2-chloro-4-[1,2,2,2-tetrafluoro-1-(trifluoromethyl)ethyl]-6-(trifluoromethyl)phenyl]-1H-pyrazol-4-yl]-N-cyclopropyl-3-pyridinecarboxamide]
[1]; [4]
  solubility in 83.3% propylene carbonate 16.7% benzyl alcohol: 14% (w/w)
[1]; solvent propylene carbonate
  solubility in propylene carbonate: 4% (w/w)
[1]; solvent triethyl phosphate
  solubility in triethyl phosphate: 40% (w/w)
